Consider four molecules from patent US6124328A, “Methods and compositions for stimulating neurite growth” (Vertex Pharmaceuticals Incorporated, priority 1997, dated 2000).

The subject of assay [1] is PC12 rat pheochromocytoma cells. As to conditions: Lyons et al., cited from earlier work.
The next assay deals with ryanodine receptor (RyR). Conditions: cited from earlier work.
In assay [2] the test system is inositol 1,4,5-triphosphate receptor (IP3 R). Conditions: cited from earlier work.
The subject of assay [3] is dorsal root ganglia (sensory ganglia). Conditions: Lyons et al., cited from earlier work.
In the next assay the target is FKBP12 (Homo sapiens, UniProt P62942). The assay can be described thus: FKBP12 Binding Assay: inhibition of FKBP rotomase activity (cis-N-succinyl-Ala-Ala-Pro-Phe-p-nitroanilide / chymotrypsin), apparent Ki. The format is biochemical. Conditions: Table 2, formula II', compound 0.1 nM-10 μM. The text has this: Preferably, the assay measures inhibition of FKBP12 rotomase activity. Such an assay has also been described by M. W. Harding et al., supra and by J. J. Siekierka et al., supra. In this assay the isomerization of an artificial substrate--N-succinyl-Ala-Ala-Pro-Phe-p-nitroanilide--is followed spectrophotometrically. The assay includes the cis form of the substrate, FKBP12, the inhibitor and chymotrypsin. Chymotrypsin is able to cleave p-nitroanilide from the trans form of the substrate, but not the cis form. Release of p-nitroanilide is measured.
In this assay various quantities of FKBP12 binding compound (0.1 nM-10 μM) were added to cis-N-succinyl-Ala-Ala-Pro-Phe-p-nitroanilide in the presence of FKBP12 and chymotrypsin. FKBP12 converts the cis form of the substrate to the trans form. This allows chymotrypsin to cleave p-nitroanilide from the substrate. Release of p-nitroanilide was measured spectrophotometrically.

Chain of FKBP12 (P62942 whole entry): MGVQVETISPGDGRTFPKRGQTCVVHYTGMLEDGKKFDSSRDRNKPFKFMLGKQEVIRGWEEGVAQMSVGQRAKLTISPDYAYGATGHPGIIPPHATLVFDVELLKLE

Consider `C=CC[C@@H]1/C=C(\C)C[C@H](C)C[C@H](OC)[C@H]2O[C@@](O)(C(=O)C(=O)N3CCCC[C@H]3C(=O)O[C@H](/C(C)=C/[C@@H]3CC[C@@H](O)[C@H](OC)C3)[C@H](C)[C@@H](O)CC1=O)[C@H](C)C[C@@H]2OC` [FK-506], for which, in assay [1] (with NGF, rat pheochromocytoma cell line), the “neurite outgrowth (synergy with NGF)” value is “acts synergistically with nerve growth factor (NGF) in stimulating neurite outgrowth”. For the same molecule, the “dissociating FKBP12 from the receptor” value (in the assay with ryanodine receptor (RyR); in assay [2]) was “capable of dissociating FKBP12 from the receptor” throughout. Moreover, in assay [3], the “neurotrophic effects in sensory ganglia” value is “demonstrated similar neurotrophic effects”.
Turning to `COc1cc(C(=O)C(=O)N2CCCC[C@H]2C(=O)OC(c2cc(OCc3ccncc3)c(OCc3ccncc3)c(OCc3ccncc3)c2)C(C)C)cc(OC)c1OC` (some centres unmarked) [compound 116], the Ki on FKBP12 is 13 nM.
On the same count and under the same terms, to `C=CCC(OC(=O)[C@@H]1CCCCN1C(=O)C(=O)c1cc(OC)c(OC)c(OC)c1)c1cc(OCc2ccncc2)c(OCc2ccncc2)c(OCc2ccncc2)c1` (some centres unmarked) [compound 118] belongs 12 nM.
Turning to `CO[C@H]1C[C@@H]2CC[C@@H](C)[C@@](O)(O2)C(=O)C(=O)N2CCCC[C@H]2C(=O)O[C@H]([C@H](C)C[C@@H]2CC[C@@H](O)[C@H](OC)C2)CC(=O)[C@H](C)/C=C(\C)[C@@H](O)[C@@H](OC)C(=O)[C@H](C)C[C@H](C)/C=C/C=C/C=C/1C` [rapamycin], in assay [1] (with FK-506), the “effect on FK-506-induced neurite outgrowth” value is on record as “did not inhibit the effects of FK-506 on neurite outgrowth” and the “neurotrophic effect in combination with FK-506” value is given as “additive effect with FK-506”. Besides, in the assay on ryanodine receptor (RyR), the “dissociating FKBP12 from the receptor” value was “capable of dissociating FKBP12 from the receptor”. Besides, in assay [2], the “dissociating FKBP12 from the receptor” value is “capable of dissociating FKBP12 from the receptor”. Further, the “effect on FK-506 neurotrophic effects in sensory ganglia” value in assay [3] (with FK-506) is recorded as “those effects were blocked by rapamycin”.
